In one assay the test system is GPx. Nature of the assay: GPx activity in rat paw tissue homogenate (carrageenan model). It is filed as in vivo. As for the experimental part: (§1) The levels of inflammatory mediators (IL-1β, TNF-α, and PGE2) in rat paw tissue homogenate were measured using the following Kits: Rat TNF-α (Tumor Necrosis Factor Alpha) ELISA Kit from Elabscience® Company, Houston, TX, USA, Interleukin 1 Beta (IL-1b) Organism Species: Rattus norvegicus (Rat) from Cloud Clone Crop Company and Rat PGE2 (Prostaglandin E2) ELISA Kit from Fine test® company Hubei, China. In addition, oxidative stress parameters in rat paw tissue homogenate were measured using superoxide dismutase, glutathione peroxidase, and catalase Kits from the Biodiagnostic company, Birmingham, UK.
(§2) Rats were slaughtered, and their paw tissues were gathered and weighed five hours after the carrageenan was administered. The tissues underwent processing after being fixed in 10% formalin. Rat paw tissue was homogenized, and its oxidative stress indices (SOD, CAT, and GPx) as well as the levels of inflammatory mediators (IL-1β, TNF-α, and PGE2) were measured.

Another assay relates to SOD. Nature of the assay: SOD activity in rat paw tissue homogenate (carrageenan model). It is filed as in vivo. As for the experimental part:
as §1, §2

Another assay concerns dermal inflammation. The assay is described as follows: Histopathological assessment of paw skin tissue (carrageenan model). It is filed as in vivo, rat. The conditions noted are these: Group 3, ibuprofen 10 mg/kg; 5 h after carrageenan. An excerpt: Five hours following the carrageenan injection, tissue specimen samples from the paw skin tissue of every group under study were removed for histological examination. Prior to being submerged in paraffin blocks, they were fixed in a 10% formalin solution and stained with hematoxylin-eosin. Using a microtome, paraffin sections with a thickness of 5 µm were cut, and hematoxylin and eosin were frequently applied to the sections. Microscopically, these tissue slices were inspected. Consequently, the sections were examined under a light microscope; on the other hand, photos taken with a digital camera (Canon Power-shot D10) recorded the progression of paw oedema.

In assay [1] the test system is carrageenan-induced paw oedema. The assay is described as follows: Carrageenan-induced paw oedema. It is filed as in vivo. The conditions noted are these: dose 10 mg/kg oral, rat. As for the experimental part:
Adult albino rats 180-220 g of both sexes used in the investigation were acquired from the Mansoura University Faculty of Pharmacy's Animal House. Standard laboratory diet and water were provided, and they were housed in cages maintained at a constant temperature of 22 ± 2 °C. The Animal Care and Use Committee (MU-ACUC) of Mansoura University, Egypt, has approved all procedures involving animals with code number: […] Throughout the experiment, medications and extracts were given orally in doses of 1 mL/100 g of the rat's body weight after being solubilized in carboxymethyl cellulose (CMC) in order to create a suspension formula. In this test, rats were divided into six groups, with each group containing 5 animals. Group-1: […] Group-2: Positive control (carrageenan-induced oedema, Sigma (St. Louis, MO, USA)) without any treatment. […] Group-4: […] extract of Lactuca sativa was administered at a 2 g/kg dose. Group-5: Compound (1) is administered at a dose of 20 mg/kg. Group-6: Compound (1) at a dose of 40 mg/kg. Group-7: Combination of standard and compound (1) at doses of (10 + 20) mg/kg, respectively. […] Using a digital vernier calliper, the swelling of the paw that had been injected with carrageenan was measured prior to injection as well as 1, 2, 3, 4, and 5 h following the treatment's induction. The percentage inhibition of oedema in the test animals treated with the extract compared to the carrageenan control group was used to calculate the anti-inflammatory activity. The formula […] was used to calculate the percentage inhibition of inflammation, where “dt” represents the difference in paw volume in the drug-treated group and “dc” represents the difference in paw volume relative to the control group. Moreover, “I” represents the suppression of inflammation.
(In the carrageenan paw model, swelling and tenderness develop within hours.)

The subject of another assay is CAT. Nature of the assay: CAT activity in rat paw tissue homogenate (carrageenan model). It is filed as in vivo. As to conditions: paw tissue 5 h after carrageenan; ibuprofen 10 mg/kg. As for the experimental part:
as §1, §2

[2] abbreviates: paw tissue 5 h after carrageenan, ibuprofen 10 mg/kg.

One molecule from publication PMC11507441, “Oilseed Cakes: A Promising Source of Antioxidant, and Anti-Inflammatory Agents—Insights from Lactuca sativa” (International Journal of Molecular Sciences, 2024) can be followed below.

Consider `CC(C)Cc1ccc(C(C)C(=O)O)cc1` (stereo not shown) [Ibuprofen, ibuprofen, reference compound], for which the GSH protection in the assay with GPx (ibuprofen alone) was 78.74%. Also, the “GPx (U/gm Tissue)” value in the assay on GPx (setting [2]) is 93.35 ± 8.84 U/gm Tissue. Further, in the assay on SOD (ibuprofen alone), the SOD protection is 75.17%. Besides, in the assay with SOD (setting [2]), the “SOD (U/gm Tissue)” value was determined as 142.1 ± 14.71 U/gm Tissue. Besides, in the assay on dermal inflammation, the “Histopathology of paw skin (H&E)” value is listed as “mild dermal inflammation”. Also, the “% Inhibition (%I) of paw oedema” value is 15.62% in assay [1] (1 h); 25.62% in assay [1] (2 h); 28.5% in assay [1] (3 h); 62.66% in assay [1] (4 h); 70.9% in assay [1] (5 h). For the same molecule, the “Increase in Paw Oedema” value in assay [1] (1 h) came to 0.69 ± 0.16 mL; in assay [1] (2 h), 1.57 ± 0.21 mL; in assay [1] (3 h), 1.82 ± 0.38 mL; in assay [1] (4 h) it was 1.49 ± 0.47 mL; in assay [1] (5 h) it was 1.20 ± 0.37 mL. In addition, the “CAT (U/gm Tissue)” value in the assay with CAT is reported as 2.20 ± 0.20 U/gm Tissue.
